This series is described as follows: recombinant UMI read abundance after kanamycin selection (control-corrected) (log10(CPM+1)); higher = more efficient recombination; extreme values may be limits of the assay; sequences stand for … in AGTGCAGAGAAAATCGGCCAGTTTTCTCTGCCTGCAGTCCGCATGCCGTGGGACCCCTTGGGTTCTAACCTGTTGCCTAGATTTATGCAGCGGACTGCCTTTCTCCCAAAGTGATAAACCGG…AGGTTGGTTTCACT; site = the 11-nt donor. Here is the method:
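Pooled E. coli donor-specificity screen for the IS621 bridge recombinase. Each library member carries a reprogrammed 11-nt donor and a full-length LE bridge RNA expressed in cis from the natural promoter, with a paired donor-binding loop (8-nt LDG + 4-nt RDG) and a target-binding loop fixed to T5. It is co-electroporated with a T5 target plasmid; recombinase is induced with 0.07 mM IPTG and recombinants are selected on kanamycin. UMIs are counted as CPM, averaged over two biological replicates and corrected by the unselected control. Molecule = full bridge RNA written as DNA, built from the T5 scaffold: LDG = donor specificity nt 1-8, RDG = reverse complement of nt 8-11.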
On to “AACCGTCCATGGACCGGTTTTCCCGGTAATCCGTATTTGAG (site AACCGTCCTCT)”, for which the “recombinant UMI read abundance (log10)” value is 0.0226.
For “AACCGTCCATGGACCGGTTTTCCCGGTAATCCGTATTTGAG (site AACCGTCCTGT)”, the “recombinant UMI read abundance (log10)” value came out at 0.
The figure for “AACCGTCCATGGACCGGTTTTCCCGGTAATCCGTATTTGAG (site AACCGTCCTTT)” is 0.00366; for “AACCGTCCATGGACCGGTTTTCCCGGTAATCCGTATTTGAT (site AAACGTCCTAT)” it is 0.00674; for “AACCGTCCATGGACCGGTTTTCCCGGTAATCCGTATTTGAT (site AACAGTCCTAT)” it is 0.0027.
To “AACCGTCCATGGACCGGTTTTCCCGGTAATCCGTATTTGAT (site AACCATCCTAT)” belongs 0.62.
As to “AACCGTCCATGGACCGGTTTTCCCGGTAATCCGTATTTGAT (site AACCCTCCTAT)”, the “recombinant UMI read abundance (log10)” value stood at 0.00675.
Regarding “AACCGTCCATGGACCGGTTTTCCCGGTAATCCGTATTTGAT (site AACCGACCTAT)”, the “recombinant UMI read abundance (log10)” value came out at 0.
For “AACCGTCCATGGACCGGTTTTCCCGGTAATCCGTATTTGAT (site AACCGCCCTAT)”, the “recombinant UMI read abundance (log10)” value amounted to 0.00356.
To “AACCGTCCATGGACCGGTTTTCCCGGTAATCCGTATTTGAT (site AACCGGCCTAT)” belongs 0.00769; to “AACCGTCCATGGACCGGTTTTCCCGGTAATCCGTATTTGAT (site AACCGTACTAT)”, 0.0096; to “AACCGTCCATGGACCGGTTTTCCCGGTAATCCGTATTTGAT (site AACCGTCCTAA)”, 0.0165.
Consider “AACCGTCCATGGACCGGTTTTCCCGGTAATCCGTATTTGAT (site AACCGTCCTAC)”, for which the “recombinant UMI read abundance (log10)” value was found to be 0.0101.
Regarding “AACCGTCCATGGACCGGTTTTCCCGGTAATCCGTATTTGAT (site AACCGTCCTAG)”, the “recombinant UMI read abundance (log10)” value came out at 0.
In the case of “AACCGTCCATGGACCGGTTTTCCCGGTAATCCGTATTTGAT (site AACCGTCCTAT)”, the “recombinant UMI read abundance (log10)” value was found to be 0.252.
To “AACCGTCCATGGACCGGTTTTCCCGGTAATCCGTATTTGAT (site AACCGTCCTCT)” belongs 0.00582; to “AACCGTCCATGGACCGGTTTTCCCGGTAATCCGTATTTGAT (site AACCGTCCTGT)”, 0; to “AACCGTCCATGGACCGGTTTTCCCGGTAATCCGTATTTGAT (site AACCGTCCTTT)”, 0.0201.
For “AACCGTCCATGGACCGGTTTTCCCGGTAATCCGTATTTGAT (site AACCGTGCTAT)”, the “recombinant UMI read abundance (log10)” value came to 0.0154.
Consider “AACCGTCCATGGACCGGTTTTCCCGGTAATCCGTATTTGAT (site AACCGTTCTAT)”, for which the “recombinant UMI read abundance (log10)” value amounted to 0.00303.
As for “AACCGTCCATGGACCGGTTTTCCCGGTAATCCGTATTTGAT (site AACCTTCCTAT)”, the “recombinant UMI read abundance (log10)” value amounted to 0.0119.
To “AACCGTCCATGGACCGGTTTTCCCGGTAATCCGTATTTGAT (site AACGGTCCTAT)” belongs 0.00654; to “AACCGTCCATGGACCGGTTTTCCCGGTAATCCGTATTTGAT (site AACTGTCCTAT)”, 0.00892; to “AACCGTCCATGGACCGGTTTTCCCGGTAATCCGTATTTGAT (site AAGCGTCCTAT)”, 0.
With “AACCGTCCATGGACCGGTTTTCCCGGTAATCCGTATTTGAT (site AATCGTCCTAT)”, the “recombinant UMI read abundance (log10)” value came to 0.0138.
Regarding “AACCGTCCATGGACCGGTTTTCCCGGTAATCCGTATTTGAT (site ACCCGTCCTAT)”, the “recombinant UMI read abundance (log10)” value came out at 0.
Take “AACCGTCCATGGACCGGTTTTCCCGGTAATCCGTATTTGAT (site AGCCGTCCTAT)”: the “recombinant UMI read abundance (log10)” value was 0.0654.
With “AACCGTCCATGGACCGGTTTTCCCGGTAATCCGTATTTGAT (site ATCCGTCCTAT)”, the “recombinant UMI read abundance (log10)” value is 0.00558.
The figure for “AACCGTCCATGGACCGGTTTTCCCGGTAATCCGTATTTGAT (site CACCGTCCTAT)” is 0.00991; for “AACCGTCCATGGACCGGTTTTCCCGGTAATCCGTATTTGAT (site GACCGTCCTAT)” it is 0.00938.
The figure for “AACCGTCCATGGACCGGTTTTCCCGGTAATCCGTATTTGAT (site TACCGTCCTAT)” is 0.0405.
With “AACCGTGCATGGACCGGTTTTCCCGGTAATCCGTATTTGAT (site AACCGTACTAT)”, the “recombinant UMI read abundance (log10)” value amounted to 0.902.
For “AACCGTGCATGGACCGGTTTTCCCGGTAATCCGTATTTGAT (site AACCGTCCTAT)”, the “recombinant UMI read abundance (log10)” value was determined as 0.0261.
For the sequence “AACCGTGCATGGACCGGTTTTCCCGGTAATCCGTATTTGAT (site AACCGTGCTAT)”, the “recombinant UMI read abundance (log10)” value was 1.37.
Take “AACCGTGCATGGACCGGTTTTCCCGGTAATCCGTATTTGAT (site AACCGTTCTAT)”: the “recombinant UMI read abundance (log10)” value is 0.
For the sequence “AACCTAGCATGGACCGGTTTTCCCGGTAATCCGTATTTGTT (site AACCTAGCTAA)”, the “recombinant UMI read abundance (log10)” value is 0.0287.
As to “AACCTAGCATGGACCGGTTTTCCCGGTAATCCGTATTTGTT (site ACCCTAGCTAA)”, the “recombinant UMI read abundance (log10)” value was found to be 0.542.
To “AACCTAGCATGGACCGGTTTTCCCGGTAATCCGTATTTGTT (site AGCCTAGCTAA)” belongs 0.024.
To “AACCTAGCATGGACCGGTTTTCCCGGTAATCCGTATTTGTT (site ATCCTAGCTAA)” belongs 0.0182.
Turning to “AACCTCCCATGGACCGGTTTTCCCGGTAATCCGTATTTGGC (site AACCTCCCTGC)”, the “recombinant UMI read abundance (log10)” value came out at 0.
Turning to “AACCTTCCATGGACCGGTTTTCCCGGTAATCCGTATTTGCC (site AACCTTCCTGG)”, the “recombinant UMI read abundance (log10)” value came out at 0.
In the case of “AACGAAACATGGACCGGTTTTCCCGGTAATCCGTATTTGCC (site AACGAAACTGG)”, the “recombinant UMI read abundance (log10)” value was found to be 2.4.
“AACGGGGCATGGACCGGTTTTCCCGGTAATCCGTATTTGCG (site AACGGGGCTCG)”: the “recombinant UMI read abundance (log10)” value stood at 1.19.
In the case of “AACGGTACATGGACCGGTTTTCCCGGTAATCCGTATTTGGG (site AACGGTACTCC)”, the “recombinant UMI read abundance (log10)” value stood at 0.0069.
In the case of “AACGTGTCATGGACCGGTTTTCCCGGTAATCCGTATTTGAC (site AAAGTGTCTGT)”, the “recombinant UMI read abundance (log10)” value stood at 0.
As for “AACGTGTCATGGACCGGTTTTCCCGGTAATCCGTATTTGAC (site AACGTGTCTGT)”, the “recombinant UMI read abundance (log10)” value amounted to 0.
Regarding “AACGTGTCATGGACCGGTTTTCCCGGTAATCCGTATTTGAC (site AAGGTGTCTGT)”, the “recombinant UMI read abundance (log10)” value came to 0.
For “AACGTGTCATGGACCGGTTTTCCCGGTAATCCGTATTTGAC (site AATGTGTCTGT)”, the “recombinant UMI read abundance (log10)” value was found to be 0.
As for “AACTCAGCATGGACCGGTTTTCCCGGTAATCCGTATTTGTA (site AACTCAGCTTA)”, the “recombinant UMI read abundance (log10)” value is 1.62.
On to “AACTCCGCATGGACCGGTTTTCCCGGTAATCCGTATTTGAC (site AACTCCGCTGT)”, for which the “recombinant UMI read abundance (log10)” value was 1.92.
With “AACTCCTCATGGACCGGTTTTCCCGGTAATCCGTATTTGCC (site AACTCCTCTGG)”, the “recombinant UMI read abundance (log10)” value turned out to be 1.8.
With “AACTCCTCATGGACCGGTTTTCCCGGTAATCCGTATTTGCC (site CACTCCTCTGG)”, the “recombinant UMI read abundance (log10)” value worked out at 2.43.
Turning to “AACTCCTCATGGACCGGTTTTCCCGGTAATCCGTATTTGCC (site GACTCCTCTGG)”, the “recombinant UMI read abundance (log10)” value worked out at 1.42.
Take “AACTCCTCATGGACCGGTTTTCCCGGTAATCCGTATTTGCC (site TACTCCTCTGG)”: the “recombinant UMI read abundance (log10)” value is 2.61.
The figure for “AACTCTACATGGACCGGTTTTCCCGGTAATCCGTATTTGTG (site AACTCTACTCA)” is 0.146; for “AACTGCACATGGACCGGTTTTCCCGGTAATCCGTATTTGCT (site AACTGCACTAG)” it is 1.96; for “AACTTGCCATGGACCGGTTTTCCCGGTAATCCGTATTTGGC (site AACTTGCCTGC)” it is 0.
The figure for “AACTTGGCATGGACCGGTTTTCCCGGTAATCCGTATTTGGA (site AACTTGGCTTC)” is 0.368.
On to “AACTTGGCATGGACCGGTTTTCCCGGTAATCCGTATTTGGA (site CACTTGGCTTC)”, for which the “recombinant UMI read abundance (log10)” value was 0.467.
As for “AACTTGGCATGGACCGGTTTTCCCGGTAATCCGTATTTGGA (site GACTTGGCTTC)”, the “recombinant UMI read abundance (log10)” value stood at 0.439.
The figure for “AACTTGGCATGGACCGGTTTTCCCGGTAATCCGTATTTGGA (site TACTTGGCTTC)” is 0.393.
For the sequence “AAGAACGCATGGACCGGTTTTCCCGGTAATCCGTATTTGGG (site AAGAACGCTCC)”, the “recombinant UMI read abundance (log10)” value came out at 0.564.
In the case of “AAGAACGCATGGACCGGTTTTCCCGGTAATCCGTATTTGGG (site AAGCACGCTCC)”, the “recombinant UMI read abundance (log10)” value is 0.0226.
For the sequence “AAGAACGCATGGACCGGTTTTCCCGGTAATCCGTATTTGGG (site AAGGACGCTCC)”, the “recombinant UMI read abundance (log10)” value is 0.0122.
As for “AAGAACGCATGGACCGGTTTTCCCGGTAATCCGTATTTGGG (site AAGTACGCTCC)”, the “recombinant UMI read abundance (log10)” value amounted to 0.0143.

(Values after the supplement of paper PMC11208160.)
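Also: IS621 bridge recombinase in Escherichia coli cells against a fixed T5 target plasmid.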
